From ChEMBL document CHEMBL3351363 (J Med Chem, 2014)

Key:
[1] = biological target: T1, Muscarinic acetylcholine receptor M4 (Homo sapiens, UniProt P08173)
T1 sequence (P08173 whole entry): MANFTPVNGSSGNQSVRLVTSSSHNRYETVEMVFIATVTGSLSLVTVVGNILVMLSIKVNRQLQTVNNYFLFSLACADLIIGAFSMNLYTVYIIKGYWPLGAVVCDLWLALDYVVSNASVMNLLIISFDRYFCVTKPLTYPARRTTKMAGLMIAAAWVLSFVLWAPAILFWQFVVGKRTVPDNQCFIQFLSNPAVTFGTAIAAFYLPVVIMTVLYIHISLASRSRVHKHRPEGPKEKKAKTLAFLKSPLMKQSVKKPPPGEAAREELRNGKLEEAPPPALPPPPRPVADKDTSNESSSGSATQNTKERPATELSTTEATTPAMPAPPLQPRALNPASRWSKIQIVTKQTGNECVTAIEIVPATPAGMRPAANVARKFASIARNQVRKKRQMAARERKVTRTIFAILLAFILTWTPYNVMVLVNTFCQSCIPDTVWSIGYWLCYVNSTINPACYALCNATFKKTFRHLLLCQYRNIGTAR

[2] = biological target: T1, Muscarinic acetylcholine receptor M4; experiment: Agonist activity at human M4 receptor expressed in HEK293T cells by BRET based Gq protein engagement assay
[3] = biological target: T2, Muscarinic acetylcholine receptor M1 (Homo sapiens) (UniProt P11229); experiment: Agonist activity at human M1 receptor expressed in HEK293T cells by BRET based Gq protein activation assay relative to carbachol; type: cell-based; details: HEK-293T
T2 sequence (whole entry): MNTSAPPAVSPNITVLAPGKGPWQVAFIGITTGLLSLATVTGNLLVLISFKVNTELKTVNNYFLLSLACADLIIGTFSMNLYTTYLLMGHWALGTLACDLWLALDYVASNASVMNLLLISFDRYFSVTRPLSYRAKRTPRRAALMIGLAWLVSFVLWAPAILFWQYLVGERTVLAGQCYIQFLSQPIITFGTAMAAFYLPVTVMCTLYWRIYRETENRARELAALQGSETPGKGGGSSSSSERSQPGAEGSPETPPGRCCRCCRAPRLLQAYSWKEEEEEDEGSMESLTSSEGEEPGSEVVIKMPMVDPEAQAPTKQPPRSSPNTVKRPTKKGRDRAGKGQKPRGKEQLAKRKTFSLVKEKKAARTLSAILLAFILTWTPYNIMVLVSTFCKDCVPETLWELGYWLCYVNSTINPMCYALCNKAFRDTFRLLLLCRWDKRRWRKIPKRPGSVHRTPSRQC

[4] = biological target: T3, Muscarinic acetylcholine receptor M1 (Homo sapiens, UniProt P11229)
T3 sequence (P11229 whole entry): T2 sequence (whole entry)

[5] = biological target: T3, Muscarinic acetylcholine receptor M1; experiment: Agonist activity at human M1 receptor expressed in HEK293T cells by BRET based Gq protein activation assay; type: cell-based, HEK-293T
[6] = biological target: T2, Muscarinic acetylcholine receptor M1 (Homo sapiens); experiment: Agonist activity at human M1 receptor expressed in HEK293T cells by BRET based beta-arrestin engagement assay relative to carbachol; type: cell-based; details: HEK-293T
[7] = biological target: T1, Muscarinic acetylcholine receptor M4; experiment: Antagonist activity at human M4 receptor expressed in HEK293T cells assessed as inhibition of carbachol-induced response by BRET based Gq protein engagement assay; type: cell-based, HEK-293T
[8] = biological target: T1, Muscarinic acetylcholine receptor M4; experiment: Antagonist activity at human M4 receptor expressed in HEK293T cells assessed as inhibition of carbachol-induced response by beta-arrestin engagement assay; type: cell-based, HEK-293T
[9] = biological target: T4, Muscarinic acetylcholine receptor M5 (Homo sapiens, UniProt P08912); experiment: Displacement of [3H]NMS from human M5 receptor expressed in CHO cells by microplate scintillation counting based radioligand binding assay; type: cell-based
T4 sequence (P08912 whole entry): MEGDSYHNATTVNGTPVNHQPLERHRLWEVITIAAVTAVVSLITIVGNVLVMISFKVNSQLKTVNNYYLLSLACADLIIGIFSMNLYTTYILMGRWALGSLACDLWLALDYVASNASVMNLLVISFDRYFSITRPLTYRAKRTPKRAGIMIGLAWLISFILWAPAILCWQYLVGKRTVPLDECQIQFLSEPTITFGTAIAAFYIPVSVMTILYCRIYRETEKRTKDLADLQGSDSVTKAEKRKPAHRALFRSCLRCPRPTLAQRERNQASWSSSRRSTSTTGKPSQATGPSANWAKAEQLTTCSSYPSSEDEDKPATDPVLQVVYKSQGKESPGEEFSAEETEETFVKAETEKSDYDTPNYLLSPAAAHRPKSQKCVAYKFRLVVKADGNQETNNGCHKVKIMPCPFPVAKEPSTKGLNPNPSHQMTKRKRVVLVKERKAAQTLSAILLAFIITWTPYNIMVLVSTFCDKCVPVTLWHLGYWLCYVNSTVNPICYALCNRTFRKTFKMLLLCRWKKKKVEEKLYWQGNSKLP

[10] = biological target: T3, Muscarinic acetylcholine receptor M1; experiment: Displacement of [3H]NMS from human M1 receptor expressed in CHO cells by microplate scintillation counting based radioligand binding assay; type: cell-based
[11] = biological target: Muscarinic acetylcholine receptor M3 (Homo sapiens, UniProt P20309); experiment: Displacement of [3H]NMS from human M3 receptor expressed in CHO cells by microplate scintillation counting based radioligand binding assay; type: cell-based
[12] = biological target: T5, Muscarinic acetylcholine receptor M4 (Homo sapiens) (UniProt P08173); experiment: Antagonist activity at human M4 receptor expressed in HEK293T cells assessed as inhibition of carbachol-induced response by beta-arrestin engagement assay relative to untreated control; type: cell-based; details: HEK-293T
T5 sequence (whole entry): T1 sequence (P08173 whole entry)

[13] = biological target: T3, Muscarinic acetylcholine receptor M1; type: cell-based, HEK-293T
[14] = biological target: T5, Muscarinic acetylcholine receptor M4 (Homo sapiens); experiment: Antagonist activity at human M4 receptor expressed in HEK293T cells assessed as inhibition of carbachol-induced response by BRET based Gi protein activation assay relative to untreated control; details: HEK-293T
[15] = biological target: T6, Muscarinic acetylcholine receptor M2 (Homo sapiens, UniProt P08172); experiment: Displacement of [3H]NMS from human M2 receptor expressed in CHO cells by microplate scintillation counting based radioligand binding assay; type: cell-based
T6 sequence (P08172 whole entry): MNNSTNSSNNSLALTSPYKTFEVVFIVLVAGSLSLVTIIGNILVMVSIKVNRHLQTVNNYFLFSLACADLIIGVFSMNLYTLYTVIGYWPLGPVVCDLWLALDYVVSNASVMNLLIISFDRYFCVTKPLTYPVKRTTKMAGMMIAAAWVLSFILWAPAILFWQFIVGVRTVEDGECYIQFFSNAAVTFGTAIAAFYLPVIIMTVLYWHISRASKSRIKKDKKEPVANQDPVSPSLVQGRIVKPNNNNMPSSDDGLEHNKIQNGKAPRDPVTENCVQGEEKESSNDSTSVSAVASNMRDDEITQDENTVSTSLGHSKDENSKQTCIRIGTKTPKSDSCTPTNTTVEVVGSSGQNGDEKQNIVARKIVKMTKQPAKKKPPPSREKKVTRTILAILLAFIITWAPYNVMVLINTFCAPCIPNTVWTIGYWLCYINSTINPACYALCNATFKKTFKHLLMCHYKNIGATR

[16] = biological target: T1, Muscarinic acetylcholine receptor M4; experiment: Agonist activity at human M4 receptor expressed in HEK293T cells by BRET based Gq protein activation assay
[17] = biological target: T3, Muscarinic acetylcholine receptor M1; experiment: Agonist activity at human M1 receptor expressed in HEK293T cells by BRET based beta-arrestin engagement assay
[18] = biological target: T2, Muscarinic acetylcholine receptor M1 (Homo sapiens); experiment: Agonist activity at human M1 receptor expressed in HEK293T cells by BRET based Gq protein engagement assay relative carbachol; type: cell-based; details: HEK-293T
[19] = biological target: T1, Muscarinic acetylcholine receptor M4; experiment: Displacement of [3H]NMS from human M4 receptor expressed in CHO cells by microplate scintillation counting based radioligand binding assay; type: cell-based
[20] = biological target: T5, Muscarinic acetylcholine receptor M4 (Homo sapiens); experiment: Agonist activity at human M4 receptor expressed in HEK293T cells by BRET based Gi protein activation assay relative to carbachol; details: HEK-293T
[21] = biological target: T5, Muscarinic acetylcholine receptor M4 (Homo sapiens); experiment: Agonist activity at human M4 receptor expressed in HEK293T cells by BRET based Gq protein engagement assay relative to carbachol; type: cell-based; details: HEK-293T
[22] = biological target: T3, Muscarinic acetylcholine receptor M1; type: cell-based, HEK-293T; remark: listed apart in the source
[23] = biological target: T5, Muscarinic acetylcholine receptor M4 (Homo sapiens); experiment: Antagonist activity at human M4 receptor expressed in HEK293T cells assessed as inhibition of carbachol-induced response by BRET based Gq protein engagement assay relative to untreated control; type: cell-based; details: HEK-293T
[24] = biological target: T3, Muscarinic acetylcholine receptor M1; experiment: Agonist activity at human M1 receptor expressed in HEK293T cells by BRET based Gq protein engagement assay
[25] = biological target: T5, Muscarinic acetylcholine receptor M4 (Homo sapiens); experiment: Agonist activity at human M4 receptor expressed in HEK293T cells by BRET based beta-arrestin engagement assay relative to carbachol; type: cell-based; details: HEK-293T
[26] = biological target: T3, Muscarinic acetylcholine receptor M1; experiment: Positive modulatory activity at human M1 receptor expressed in HEK293T cells assessed as effect on carbachol-induced response by BRET based Gq protein activation assay; type: cell-based, HEK-293T
[27] = biological target: T2, Muscarinic acetylcholine receptor M1 (Homo sapiens); experiment: Positive modulatory activity at human M1 receptor expressed in HEK293T cells assessed as effect on carbachol-induced response by BRET based Gq protein activation assay relative to untreated control; type: cell-based; details: HEK-293T
[28] = biological target: T2, Muscarinic acetylcholine receptor M1 (Homo sapiens); experiment: Positive modulatory activity at human M1 receptor expressed in HEK293T cells assessed as effect on carbachol-induced response by BRET based Gq protein engagement assay relative to untreated control; type: cell-based; details: HEK-293T
[29] = biological target: T3, Muscarinic acetylcholine receptor M1; experiment: Positive modulatory activity at human M1 receptor expressed in HEK293T cells assessed as effect on carbachol-induced response by BRET based Gq protein engagement assay; type: cell-based, HEK-293T

Sequence of Muscarinic acetylcholine receptor M3 (P20309 whole entry): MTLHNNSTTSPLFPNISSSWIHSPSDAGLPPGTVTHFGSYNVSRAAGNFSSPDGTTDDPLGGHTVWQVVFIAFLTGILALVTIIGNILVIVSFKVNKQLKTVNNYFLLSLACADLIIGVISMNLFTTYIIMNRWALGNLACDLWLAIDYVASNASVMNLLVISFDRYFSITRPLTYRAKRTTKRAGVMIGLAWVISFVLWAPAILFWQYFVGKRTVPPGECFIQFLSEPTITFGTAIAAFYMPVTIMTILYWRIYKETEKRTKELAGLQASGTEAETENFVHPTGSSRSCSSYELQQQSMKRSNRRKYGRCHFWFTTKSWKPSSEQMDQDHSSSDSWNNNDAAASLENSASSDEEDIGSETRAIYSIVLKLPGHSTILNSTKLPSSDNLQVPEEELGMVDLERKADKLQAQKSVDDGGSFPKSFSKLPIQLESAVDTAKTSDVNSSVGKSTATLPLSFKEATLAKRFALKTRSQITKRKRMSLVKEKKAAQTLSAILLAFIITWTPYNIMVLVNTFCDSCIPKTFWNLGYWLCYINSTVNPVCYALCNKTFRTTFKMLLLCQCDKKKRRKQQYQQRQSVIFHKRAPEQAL

Compound | IC50 [1] [nM] | EC50 [2] [nM] | Emax [3] [%] | IC50 [4] [nM] | EC50 [5] [nM] | Emax [6] [%] | IC50 [7] [nM] | IC50 [8] [nM] | Ki [9] [nM] | Ki [10] [nM] | Ki [11] [nM] | Imax [12] [%] | IC50 [13] [nM] | Imax [14] [%] | Ki [15] [nM] | Emax [18] [%] | Ki [19] [nM] | Emax [20] [%] | Emax [21] [%] | Imax [23] [%] | further results
CN1CCC=C(c2nsnc2OCCCCCCCC2CCN(CCCN3C(=O)CCc4ccccc43)CC2)C1 | 1860 | 18.6 | 25 | 21.9 | 41.7 | 42 | 407 | 145 | 2.29 | 0.912 | 0.794 | 14 | 380 | 60 | 1.38 | 42 | 0.891 | 40 | 18 | 92 | EC50 [16]: 35.5 nM; EC50 [17]: 174 nM; IC50 [22]: 741 nM; EC50 [24]: 166 nM
CCCCCCOc1nsnc1C1=CCCN(C)C1 [XANOMELINE] | – | – | 77 | – | – | 95 | – | – | – | – | 7.76 | – | – | – | – | 54 | – | 94 | – | – | Emax [25]: 42%
O=C1CCc2ccccc2N1CCCN1CCC(CCCCCCCO)CC1 | 589 | – | 73 | 1150 | 100 | – | 1480 | 794 | 3090 | 355 | 631 | 93 | – | 54 | 209 | 76 | 389 | < 0 | < 0 | < 100 | EC50 [26]: 85.1 nM; Emax [27]: 44%; Emax [28]: 21%; EC50 [29]: 69.2 nM; EC50 [24]: 229 nM
CN1CCC=C(c2nsnc2OCCCCCC2CCN(CCCN3C(=O)CCc4ccccc43)CC2)C1 | 631 | 7080 | 13 | 4270 | 20.4 | – | 447 | 355 | 5.62 | 6.76 | 4.68 | < 100 | 5370 | < 100 | 11 | < 0 | 7.94 | 27 | < 0 | < 100 | EC50 [16]: 30.9 nM; IC50 [22]: 646 nM
